Source: US11472826B2, “Acyclic antivirals” (priority 2016, dated 2022)

Tests used:
[1] = test system: VSV-G pseudotyped HIV NL4-3; assay: microbe, parasite or virus in culture; assay type: cell-based; settings: Human immunodeficiency virus 1, NL43, 72 h
HBV = assay: microbe, parasite or virus in culture; assay type: cell-based; settings: Hepatitis B virus; HepG2.117 cells, 72 hours, HBV viral copy numbers in supernatant; read-out: EC50

SMILES | EC50 [1] | EC50 (HBV)
CC(Cc1ccc2c(N)nc(N)nn12)OCP(=O)(O)O (stereo not shown) [Compound 9, (((1-(2,4-diaminopyrrolo[2,1-f][1,2,4]triazin-7-yl)propan-2-yl)oxy)methyl) phosphonic Acid] | < 20 µM | 1 to 10 µM
CC(Cc1ccc2c(N)nc(F)nn12)OCP(=O)(O)O (stereo not shown) [Compound 8, (((1-(4-amino-2-fluoropyrrolo[2,1-f][1,2,4]triazin-7-yl)propan-2-yl)oxy)methyl)phosphonic Acid] | 20 to 100 µM | 10 to 100 µM
